Source: patent US12097200B2, “Combination of BI853520 with chemotherapeutic drugs” (INXMED (NANJING) CO., LTD., priority 2020, dated 2024)
Values joined by “and” are separate entries in the source; they are usually repeats but may differ in a detail not shown here. Identical values can stand only once.

Legend:
TOV-21G cells = test: Antitumor activity in mouse model of human ovarian cancer (TOV-21G xenograft); type: in vivo; details: combination of both
From the text: (§1) For tumor volume, absolute values were used.
(§2) Appropriate statistical methods were used for evaluation.
TOV-21G cells harboring KRAS and PIK3CA gene mutations were obtained from ATCC (CRL-11730).

SKOV-3 cells = test: Antitumor activity in mouse model of human ovarian cancer (SKOV-3 xenograft); type: in vivo; details: combination of both
From the text: as §1, §2
SKOV-3 cells harboring CDKN2, MLH1, PIK3CA and TP53 gene mutations were obtained from ATCC (HTB-77).
PLD (Doxil) was purchased from Johnson & Johnson and dissolved in sterile 5% glucose solution.
Treatment was initiated when the median tumor volume was between 70 and 110 mm^3.

A2780 cells = test: Antitumor activity in mouse model of human ovarian cancer (A2780 xenograft); type: in vivo
From the text: as §1, §2
A2780 cells harboring PTEN gene mutations were obtained from ECACC (93112519).

CTG-0257 = test: Antitumor activity in ovarian cancer PDX model CTG-0257; type: in vivo, mouse; details: 30 days until end of test, doses as Table 3
Description: (§3) Body weights (at start of dosing) were approximately 20 grams. […] Immunocompromised female mice were housed in HEPA ventilated cages (Innocage® IVC, Innovive USA) at 68-74° F. (20-23° C.) and 30-70% humidity under a 12-hour light/12-hour dark cycle. […] Animals with >10% body weight loss compared to day 0 received DietAel 76A (ClearH2O®, Portland, ME) for free. There were 3 mice in each group.
(§4) Mice were implanted with tumor cells from the ChampionsTumorGraft® ovarian model, which was established from patients previously treated with platinum-based therapy. After tumors reached 1000-1500 mm^3, they were collected, and tumor fragments SCs were implanted in the left flank of female pre-study mice. Each study animal was implanted with a specific passage batch. Tumor volume was measured twice a week with calipers to monitor tumor growth, and tumor volume (TV) was calculated using the formula (0.52×[length×width^2]). […] After initiation of dosing, animals were weighed daily using a digital scale and TV was measured twice weekly. […]
(§5) Inhibitory effect on tumor growth was determined by calculating TGI (100%×[1−(final MTV−initial MTV of the treatment group)/(final MTV−initial MTV of the control group)]). […]
(§6) CR: no TV could be detected (<4×4 mm^2), in 2 consecutive measurements […]

CTG-0964 = test: Antitumor activity in ovarian cancer PDX model CTG-0964; type: in vivo, mouse; details: CTG-0964 (carboplatin and paclitaxel-resistant); 35 days until end of test; doses as Table 3
Description: as §3, §4, §5, §6

CTG-0992 = test: Antitumor activity in ovarian cancer PDX model CTG-0992; type: in vivo, mouse; details: CTG-0992 (carboplatin and paclitaxel-resistant); 60 days until end of test; doses as Table 3
Description: as §3, §4, §5, §6

CTG-1086 = test: Antitumor activity in ovarian cancer PDX model CTG-1086; type: in vivo, mouse; details: 28 days until end of test, doses as Table 3
Description: as §3, §4, §5, §6

CTG-1301 = test: Antitumor activity in ovarian cancer PDX model CTG-1301; type: in vivo, mouse; details: CTG-1301 (carboplatin and paclitaxel-resistant); 38 days until end of test; doses as Table 3
Description: as §3, §4, §5, §6

CTG-1395 = test: Antitumor activity in ovarian cancer PDX model CTG-1395; type: in vivo, mouse; details: 33 days until end of test, doses as Table 3
Description: as §3, §4, §5, §6

CTG-1427 = test: Antitumor activity in ovarian cancer PDX model CTG-1427; type: in vivo, mouse; details: 42 days until end of test, doses as Table 3
Description: as §3, §4, §5, §6

CTG-1433 = test: Antitumor activity in ovarian cancer PDX model CTG-1433; type: in vivo, mouse; details: CTG-1433 (carboplatin and paclitaxel-resistant); 49 days until end of test; doses as Table 3
Description: as §3, §4, §5, §6

CTG-1498 = test: Antitumor activity in ovarian cancer PDX model CTG-1498; type: in vivo, mouse; details: CTG-1498 (carboplatin and paclitaxel-resistant); 98 days until end of test; doses as Table 3
Description: as §3, §4, §5, §6

CTG-1627 = test: Antitumor activity in ovarian cancer PDX model CTG-1627; type: in vivo, mouse; details: 28 days until end of test, doses as Table 3
Description: as §3, §4, §5, §6

CTG-1649 = test: Antitumor activity in ovarian cancer PDX model CTG-1649; type: in vivo, mouse; details: 40 days until end of test, doses as Table 3
Description: as §3, §4, §5, §6

CTG-1809 = test: Antitumor activity in ovarian cancer PDX model CTG-1809; type: in vivo, mouse; details: CTG-1809 (carboplatin and paclitaxel-resistant); 36 days until end of test; doses as Table 3
Description: as §3, §4, §5, §6

KYSE-270 cells = test: Antitumor activity in mouse xenograft model of human esophageal cancer (KYSE-270); type: in vivo; details: KYSE-270 xenograft, combination of both
From the text: as §1, §2
Mice were approximately 8-10 weeks old.
KYSE-270 was a cell line for esophageal cancer (Public Health England, Cat. No. 94072021).

KYSE-70 cells = test: Antitumor activity in mouse xenograft model of human esophageal cancer (KYSE-70); type: in vivo; details: KYSE-70 xenograft, combination of both
[1] = system: GXA 3039 gastric cancer PDX model
Description: Mice were housed in individual ventilated cages ([sequence] Sealsafe™-IVC-System, [sequence], Hohenpeissenberg, Germany), and type II or III cages were selected according to the number of experimental animals. The cages were under the conditions: 14L:10D light-dark cycle, air exchange (AC) rate of 60-65 AC/hr in the cage, 25±1° C. and 40-70% humidity. […] Water and diet were changed twice a week, and all materials were autoclaved before use.
Tumor fragments were implanted subcutaneously into the flank of female pre-study mice. […] Animals that were not randomized were euthanized. The date of randomization was designated as day 0 of the test, and dosing began on day 1. […] If less than 70% of the original number of mice survived (i.e. less than 6 out of 8), the entire group was terminated. […] Tolerability was assessed using the group with the largest median body weight loss (BWL) among groups.
Inhibition of tumor growth was determined by calculating TGI.
Additional endpoints used to assess efficacy included: time to tumor volume doubling/quadrupling and tumor growth delay/time to tumor progression/tumor repopulation.
Time to tumor volume doubling/quadrupling: The time to tumor volume doubling/quadrupling (Td/Tq) for the test and control groups was defined as the time interval (in days) required for each group to reach 200%/400% of the median RTV. The relative volume of a single tumor on day X (RTVx [%]) was obtained by dividing the absolute volume of the tumor on day X (Tx) by the absolute volume of the tumor on day 0 (T0) and then multiplying it by 100, as follows:
Tumor growth delay/time to tumor progression/tumor repopulation: To assess the difference in time to tumor progression/tumor repopulation after tumor regression during the no-dose observation period (tumor growth delay, TGD), Kaplan-Meier survival analysis was used. A relative tumor volume of 400% was defined as the endpoint.
The control group for oral administration was 0.5% Natrosol. The control group for intravenous administration was 0.9% saline. Each dose was 10 ml/kg.
Data were used for statistical analysis at the end of the study. The one-tailed nonparametric Mann-Whitney-Wilcoxon U test was used with the significance level a set at 0.05. The p-values obtained from the U-test were adjusted using the Bonferroni-Holm correction.
To assess the statistical significance of differences in time to tumor progression/tumor growth delay (TGD) using 400% of RTV as the trial endpoint, the Kaplan-Meier survival mode statistic was used in conjunction with the log-rank Mantel-Cox test for pairwise comparisons.
Additionally, to assess tolerance to treatment, a two-tailed nonparametric Mann-Whitney-Wilcoxon U test was performed using body weights determined at the end of the dosing period (i.e., on the day TGI values were calculated).
By convention, p-values≤0.05 represented significant tumor inhibition or weight loss.

NCI-H520 cells = details: NCI-H520 xenograft, day 22, combination of both
Description: Mice were approximately 6 weeks old. There were 5 mice in each group.
The cell concentration of the culture was maintained between 8×10^6 to 12×10^7 cells/tissue culture flask.
Cisplatin was dissolved in 0.9% saline.
Statistical evaluation was performed using the Student's t-test function in Microsoft Excel, utilizing a two-tailed distribution and a two-sample equal variance type.

CTG-1166 = test: Antitumor activity in ChampionsTumorGraft PDX ovarian cancer model CTG-1166
Description: as §3
Mice were implanted with tumor cells from the ChampionsTumorGraft® ovarian model, which was established from patients previously treated with platinum-based therapy. After tumors reached 1000-1500 mm^3, they were collected, and tumor fragments SCs were implanted in the left flank of female pre-study mice. Each study animal was implanted with a specific passage batch. Tumor volume was measured twice a week with calipers to monitor tumor growth, and tumor volume (TV) was calculated using the formula (0.52×[length×width^2]). When TV reached approximately 250-350 mm^3 (average 300 mm^3), animals were matched to tumor size and assigned to the control or treatment groups (study mice) and dosing started on day 0. After initiation of dosing, animals were weighed daily using a digital scale and TV was measured twice weekly. The study was terminated when the mean tumor volume in the control group reached approximately 1500 mm^3 or until day 60. In some models, the study was extended beyond Day 60 and dosing was also extended to the end of the study. Individual animals could be removed from the study when tumor volume reaches approximately 1500 mm^3.
Control 1: 0.5% Natrosol; control 2: 5% sterile glucose.
The control group for oral administration was 0.5% Natrosol. The control group for intravenous administration was 5% sterile glucose.
Carboplatin was a pre-formulated 10 mg/mL stock solution. PLD was a pre-formulated 2 mg/mL stock solution. Paclitaxel was a pre-formulated 6 mg/mL stock solution. These standard chemotherapeutic drugs were provided by Champions.
Data for each group, including body weight for each animal and mean body weight, were recorded, and the percentage change in mean body weight (% vD0) for each group relative to Day 0 was recorded, and the % vD0 was plotted at the completion of the study.
Animal deaths were recorded daily and determined as drug-related (D), technical (T), tumor-related (B), or unknown (U) based on weight loss and by visual inspection. […] The maximum mean % vD0 (body weight nadir) for each treatment group was reported at the end of the study.
Inhibitory effect on tumor growth was determined by calculating TGI (100%×[1−(final MTV−initial MTV of the treatment group)/(final MTV−initial MTV of the control group)]). Treatment was started on day 0. Tumor volumes in the treatment group were compared with those in the control group on the day the study was completed.
Other endpoints used to assess efficacy included number of CR, PR and TFS. PR and TFS were considered to exclude CR.
PR: TV≤30% of TV on day 0, in 2 consecutive measurements
CR: no TV could be detected (<4×4 mm^2), in 2 consecutive measurements
TFS: CR that persisted until the study was completed
Data were used for statistical analysis at the end of the study. Statistical comparisons of tumor volumes were performed using one-way analysis of variance followed by Newman-Keuls multiple comparison test to compare differences between all groups. Selected endpoints included as many groups as possible and as many animals per group as possible.
Tumor volumes from animals removed early due to tumor volume ≥1500 mm^3 were carried forward for analysis, but not more than 4 consecutive measurement time points.

PC-3 cells = test: Antitumor activity in mouse xenograft model of human prostate cancer (PC-3); details: PC-3 xenograft, combination of both
[2] = day 22, BI 853520 12.5 mg/kg qd by gavage, PLD 1 mg/kg q7d i.v.
[3] = BI 853520 50 mg/kg qd, paclitaxel 10 mg/kg q7d
[4] = BI 853520 50 mg/kg qd, docetaxel 10 mg/kg q7d
[5] = BI 853520 50 mg/kg qd, cisplatin 5 mg/kg IP q7d
[6] = CTG-1166 PDX, Day 0-56, n=3 per group, doses as Table 4
[7] = CTG-1166 PDX, day 17, BI 853520 50 mg/kg PO BID, PLD 3 mg/kg IV q7d, carboplatin 25 mg/kg IP q7dx3 + paclitaxel 20 mg/kg IV q7dx3
[8] = BI 853520 25 mg/kg qd, docetaxel 7.5 mg/kg q7d

## COc1cc(C(=O)NC2CCN(C)CC2)c(F)cc1Nc1ncc(C(F)(F)F)c(Oc2cccc3c2C(=O)N(C)C3)n1 [BI 853520, 2-fluoro-5-methoxy-4-[(4-(2-methyl-3-oxo-2,3-dihydro-1H-isoindole-4-oxy)-5-trifluoromethyl-pyrimidin-2-yl)amino]-N-(1-methyl-piperidin-4-yl)benzamide]
TOV-21G cells; BI 853520 12.5 mg/kg qd, PLD 1 mg/kg q7d
  Antitumor effect (in words): good efficacy at low doses
TOV-21G cells; day 1 to day 22, median tumor volumes, BI 853520 12.5 mg/kg qd, PLD 1 mg/kg q7d
  TGI: 67%
TOV-21G cells; [2]
  Median tumor volume: 271 mm^3
  Tumor regression (animals with regression/animals in group): no tumor regression and 0/7
SKOV-3 cells; day 1 to day 22, median tumor volumes, BI 853520 50 mg/kg qd, PLD 5 mg/kg q7d
  TGI: 57%
SKOV-3 cells; day 22, BI 853520 50 mg/kg qd by gavage, PLD 5 mg/kg q7d i.v.
  Median tumor volume: 306 mm^3
SKOV-3 cells; day 22, BI 853520 50 mg/kg qd, PLD 5 mg/kg q7d
  Tumor regression (animals with regression/animals in group): no tumor regression and 0/7
A2780 cells; BI 853520 25 and 50 mg/kg qd, PLD 5 mg/kg q7d, combination 50 + 5 mg/kg
  Antitumor effect (in words): efficacy of BI 853520 was observed at medium and high dose levels
A2780 cells; day 1 to day 15, BI 853520 12.5 mg/kg qd
  TGI: 19%
A2780 cells; day 1 to day 15, BI 853520 25 mg/kg qd
  TGI: 83%
A2780 cells; day 1 to day 15, BI 853520 50 mg/kg qd, PLD 5 mg/kg q7d, combination of both
  TGI: 85%
A2780 cells; day 15, BI 853520 12.5 mg/kg qd by gavage
  Median tumor volume: 968 mm^3
A2780 cells; day 15, BI 853520 12.5 mg/kg qd, 12.5 mg/kg
  Tumor regression (animals with regression/animals in group): no tumor regression and 0/10
A2780 cells; day 15, BI 853520 25 mg/kg qd by gavage
  Median tumor volume: 284 mm^3
A2780 cells; day 15, BI 853520 25 mg/kg qd, 25 mg/kg
  Tumor regression (animals with regression/animals in group): no tumor regression and 0/10
A2780 cells; day 15, BI 853520 50 mg/kg qd by gavage, PLD 5 mg/kg q7d i.v., combination of both
  Median tumor volume: 262 mm^3
A2780 cells; day 15, BI 853520 50 mg/kg qd, PLD 5 mg/kg q7d, combination of both
  Tumor regression (animals with regression/animals in group): no tumor regression and 0/10
CTG-0257
  TGI (%): 67%
CTG-0964
  TGI (%): 66%
CTG-0992
  TGI (%): 49%
CTG-1086
  TGI (%): 39%
CTG-1301
  TGI (%): 43%
CTG-1395
  TGI (%): 41%
CTG-1427
  TGI (%): 59%
CTG-1433
  TGI (%): 61%
CTG-1498
  TGI (%): 128%
CTG-1627
  TGI (%): 50%
CTG-1649
  TGI (%): 71%
CTG-1809
  TGI (%): −58%
KYSE-270 cells; day 13, BI 853520 50 mg/kg qd by gavage, paclitaxel 10 mg/kg q7d i.v.
  Median tumor volume: 126 mm^3
KYSE-270 cells; day 13, BI 853520 50 mg/kg qd, paclitaxel 10 mg/kg q7d
  TGI: 106%
KYSE-270 cells; [3]
  Antitumor effect (in words): had inhibitory effect on tumor growth
  Change in median body weight: 2.8%
  Tumor regression (animals with regression/animals in group): 6 of 7 and 6/7
KYSE-70 cells; day 42, BI 853520 50 mg/kg qd by gavage, docetaxel 10 mg/kg q7d i.v.
  Median tumor volume: 497 mm^3
KYSE-70 cells; [4]
  Antitumor effect (in words): no inhibitory effect on tumor growth
  Change in median body weight: 8.8%
  TGI: 42%
  Tumor regression (animals with regression/animals in group): 1 of the 7 and 1/7
[1]; GXA 3039 PDX, doses as Table 8
  Antitumor effect (in words): did not show any antitumor efficacy
[1]; GXA 3039 PDX, time to 200% of median RTV, doses as Table 8
  Td (time to tumor volume doubling): 8.1 days
[1]; GXA 3039 PDX, time to 400% of median RTV, nr = not reached until end of test, doses as Table 8
  Tq (time to tumor volume quadrupling): 41.2 days
[1]; GXA 3039 gastric cancer PDX, day 36, BI 853520 50 mg/kg/d PO days 1-35, docetaxel 10 mg/kg IV days 1, 8, 15, 22, 29, combination of both
  TGI [%] (d): 0% and 0(36) %
[1]; female, BomTac:NMRI-Foxn1nu, mouse, in vivo
  Survival rate: 4/8
NCI-H520 cells; BI 853520 50 mg/kg qd by gavage, cisplatin 5 mg/kg IP once a week
  Median tumor volume: 352 mm^3
NCI-H520 cells; [5]
  Median TGI: 54%
  Tumor regression (animals with regression/animals in group): 0/7
CTG-1166; [6]
  #CR (complete responses): 0/0/0
  #PR (partial responses): 0/0/0
  #TFS (tumor-free survivors): 0/0/0
CTG-1166; CTG-1166 PDX, day 17, change in mean body weight relative to Day 0
  Body weight (day 17) % vD0: 4.0%
CTG-1166; [7]
  % TGI: 89%
  Tumor volume (day 17) Mean ± SEM: 366 ± 78 mm^3
CTG-1166; CTG-1166 PDX, animal deaths, n=3 per group
  Dead Total: 0
CTG-1166; CTG-1166 PDX, day of body weight nadir
  Body weight nadir Day: 13
CTG-1166; CTG-1166 PDX, doses as Table 4
  Antitumor activity (in words): significant inhibitory effect on tumor growth
CTG-1166; mouse, in vivo
  Body weight (day 17) Mean ± SEM: 26.7 ± 0.4 g
CTG-1166; mouse, in vivo, po, 50 mg/kg
  Body weight nadir % vD0(max): −0.7%
PC-3 cells; day 35 (withdrawal on day 28), BI 853520 25 mg/kg qd by gavage, docetaxel 7.5 mg/kg q7d i.v.
  Median tumor volume: 316 mm^3
PC-3 cells; [8]
  Antitumor effect (in words): certain inhibitory effect on tumor growth
  Change in median body weight: 2.4%
  TGI: 66%
  Tumor regression (animals with regression/animals in group): 0/7
